Laboratory results taken from patent publication US20110028447A1, “INDAZOLE DERIVATIVES” (Pfizer Inc., priority 2008, published 2011).
Like-named read-outs stand apart in the source and are kept apart here.

Columns and labels:
human CB1 receptor [1] = target: T1, human CB1 receptor (Homo sapiens, UniProt P21554); test: [35S] GTPγS binding on membranes of CHO cells expressing the human CB1 receptor (agonism); assay type: biochemical; parameters: expressed in transfected cells; membrane preparation
Method: Membrane preparation: CHO cells expressing the human CB1 receptor were grown to 80% confluence in Ham's F-12 Nutrient Medium (Invitrogen) containing 10% fetal bovine serum (Invitrogen), 1% pen/strep (Invitogen), 1% Nonessential amino acids (Invitrogen) and 500 μg/ml G418 (Invitrogen). Cells were released from flasks using Cell Dissociation Buffer (Invitrogen). Cells were pelleted by centrifugation at 500×G for 5 minutes. Membranes were prepared by resuspending cells in ice cold Assay Buffer (25 mM Tris pH 7.4, 5 mM EDTA, 5 mM EGTA, Complete Protease Inhibitor (Roche)). Cells were lysed with 12 strokes of a dounce homogenizer. Unlysed cells were pelleted by centrifugation at 500×G for 5 minutes. Membranes were pelleted by centrifugation at 25,000×G for 30 minutes. Membranes were resuspended in TEE, dounced 12 strokes, and pelleted a second time at 25,000×G for 30 minutes. Membrane pellet was resuspended in 50 mM Tris pH 7.4, 100 mM NaCl, 3 mM MgCl2, 0.2 mM EGTA, Complete Protease Inhibitor (Roche). Protein concentration was determined using the Micro-BCA Protein Assay Kit (Pierce) using BSA as a standard. Membranes were frozen and stored at −80 degrees Celsius until use.
GTPγS Binding: 40 μl of test compound was incubated with 20 μl of [^35S] GTPγS (Perkin Elmer) (1250 Ci/millimole) and 140 μl of membrane homogenate (5 μg/well) in polypropylene 96-well plates (Corning). Final reaction conditions were 50 mM Tris pH 7.4, 100 mM NaCl, 3 mM MgCl2, 0.2 mM EGTA, 0.04% BSA. After incubation at 37 degrees Celsius for 45 minutes reactions were harvested by vacuum filtration through Unifilter GF/B-96 filters (Perkin Elmer) using a FilterMate Plate Harvester (Perkin Elmer). Filters were rinsed 4 times with ice cold 50 mM Tris pH 7.4, 3 mM MgCl2, 0.2 mM EGTA and dried at 50 degrees Celsius for at least 30 minutes. 40 μl of Microscint-20 (Perkin Elmer) was added per well, and plates were counted using a Top-Count Microplate Scintillation Counter (Perkin Elmer). Binding data were analyzed and EC50 values were calculated using Graph Pad Prism 4.0 Software.

human CB1 receptor [2] = target: T1, human CB1 receptor; test: Human CB1 receptor binding, [3H] CP-55,940 displacement on HEK cell membranes; parameters: expressed in transfected cells; host or cells: HEK cells, doxycycline-induced; membrane preparation
How it was run: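 Membranes from doxycycline-induced HEK cells expressing human CB1 incubated 60 min at room temperature with [3H] CP-55,940 (final […]) in 50 mM Tris pH 7.4, 100 mM NaCl, 3 mM MgCl2, 0.2 mM EGTA, 0.04% BSA. Nonspecific binding defined with 50 μM WIN-55,212-2; filtration and scintillation counting gave EC50 and Ki.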

[3] = GTPγS EC50, human CB1, CHO cell membranes
[4] = human CB1, CHO cell membranes, read-out: GTPγS EC50

T1 sequence (P21554 whole entry): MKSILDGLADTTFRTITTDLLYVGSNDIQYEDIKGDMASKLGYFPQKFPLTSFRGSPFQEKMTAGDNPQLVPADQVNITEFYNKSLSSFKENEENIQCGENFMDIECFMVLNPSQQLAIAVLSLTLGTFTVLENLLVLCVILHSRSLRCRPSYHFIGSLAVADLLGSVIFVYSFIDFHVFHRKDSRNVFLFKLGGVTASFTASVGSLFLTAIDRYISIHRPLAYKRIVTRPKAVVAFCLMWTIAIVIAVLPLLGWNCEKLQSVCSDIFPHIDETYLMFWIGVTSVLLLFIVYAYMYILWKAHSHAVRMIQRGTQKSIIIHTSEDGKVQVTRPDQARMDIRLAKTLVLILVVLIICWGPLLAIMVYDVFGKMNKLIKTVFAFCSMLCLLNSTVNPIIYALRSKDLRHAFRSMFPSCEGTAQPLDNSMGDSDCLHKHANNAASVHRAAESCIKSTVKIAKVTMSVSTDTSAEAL

Row | SMILES | EC50 (human CB1 receptor [1]; [3]) [nM] | Ki (human CB1 receptor [2]; CB1 Ki) [nM] | EC50 (human CB1 receptor [1]; [4]) [nM] | Ki (human CB1 receptor [2]; read-out: CB1 Ki) [nM]
1 | CC(C)(C)C(NC(=O)c1nn(Cc2ccc(F)cc2)c2ccccc12)C(=O)NCCNC(N)=O (centres unmarked) [Example 85] | 16.1 | 1.72 | – | –
2 | CC(C)(C)C(NC(=O)c1nn(Cc2ccc(C#N)cc2F)c2ccccc12)C(N)=O (centres unmarked) [Example 86] | 34.2 | 2.75 | – | –
3 | CC(C)(C)C(NC(=O)c1nn(Cc2ccc(C#N)cc2F)c2ccccc12)C(=O)NC1CC1 (centres unmarked) [Example 87] | 46.1 | 2.26 | – | –
4 | CC(C)(C)C(NC(=O)c1nn(Cc2ccc(C#N)cc2F)c2ccccc12)c1nnc(NC(=O)C2CC2)o1 (centres unmarked) [Example 88] | – | – | 132 | 15.4
5 | CC(C)(C)C(NC(=O)c1nn(Cc2ccc(C#N)cc2F)c2ccccc12)C(=O)NCC(O)CO (centres unmarked) [Example 89] | 539 | 63.4 | – | –
6 | CC(C)(C)C(NC(=O)c1nn(Cc2ccc(C#N)cc2F)c2ccccc12)C(=O)NCC(O)CO (centres unmarked) [Example 90] | 385 | 27.4 | – | –
7 | CC(C)(C)C(NC(=O)c1nn(Cc2ccc(C#N)cc2F)c2ccccc12)C(=O)NCCO (centres unmarked) [Example 91] | 53.8 | 1.87 | – | –
8 | CC(C)(C)C(NC(=O)c1nn(Cc2ccc(C#N)cc2F)c2ccccc12)C(=O)NCC(N)=O (centres unmarked) [Example 92] | 265 | 14.1 | – | –
9 | CC(C)(C)C(NC(=O)c1nn(Cc2ccc(C#N)cc2F)c2ccccc12)C(=O)NCCCO (centres unmarked) [Example 93] | 41.8 | 14.3 | – | –
10 | CC(C)(C)C(NC(=O)c1nn(Cc2ccc(C#N)cc2F)c2ccccc12)C(=O)NCCNC(N)=O (centres unmarked) [Example 94] | 77 | 27.5 | – | –
11 | CC(C)(C)C(NC(=O)c1nn(Cc2ccc(C#N)cc2F)c2ccccc12)c1nnc(N)o1 (centres unmarked) [Example 95] | – | – | 13.7 | 2.22
12 | CC(C)(C)C(NC(=O)c1nn(Cc2ccccc2)c2ccccc12)C(=O)NCCNS(=O)(=O)C1CC1 (centres unmarked) [Example 96] | – | – | 16.9 | 1.18
13 | CC(C)(C)[C@H](NC(=O)c1nn(Cc2ccc(C#N)cc2)c2ccccc12)C(=O)NCCNS(=O)(=O)C1CC1 [Example 97] | – | – | 16.7 | 1.04
14 | CC(C)(C)[C@H](NC(=O)c1nn(Cc2ccc(C#N)cc2F)c2ccccc12)C(=O)NCCNS(=O)(=O)C1CC1 [Example 98] | – | – | 8.63 | 0.98
15 | CC(C)(C)[C@H](NC(=O)c1nn(Cc2ccc(F)cc2)c2ccccc12)C(=O)NCCNS(=O)(=O)C1CC1 [Example 99] | – | – | 0.5 | 0.18
16 | CC(C)(C)[C@H](NC(=O)c1nn(Cc2ccc(F)cc2)c2ccccc12)C(=O)NCCNC(=O)C1CC1 [Example 103] | – | – | 9.08 | 2.68
17 | CC(C)(C)[C@H](NC(=O)c1nn(Cc2ccc(C#N)cc2)c2c(F)cccc12)C(=O)NC1CC1 [Example 108] | 27 | 3.78 | – | –
18 | CC(C)(C)[C@H](NC(=O)c1nn(Cc2ccc(C#N)cc2)c2c(F)cccc12)C(=O)NCCCO [Example 109] | 110 | 8.14 | – | –
19 | CC(C)(C)[C@H](NC(=O)c1nn(Cc2ccc(C#N)cc2)c2c(F)cccc12)C(=O)NCC(N)=O [Example 110] | 237 | 28.9 | – | –
20 | CC(C)(C)[C@H](NC(=O)c1nn(Cc2ccc(C#N)cc2)c2c(F)cccc12)C(N)=O [Example 111] | 9.73 | 0.72 | – | –
21 | CC(C)(C)[C@H](NC(=O)c1nn(Cc2ccc(C#N)cc2)c2c(F)cccc12)c1nnc(N)o1 [Example 112] | – | – | 31.8 | 0.51
22 | CC(C)(C)[C@H](NC(=O)c1nn(Cc2ccc(C#N)cc2)c2c(F)cccc12)C(=O)NC[C@H](O)CO [Example 113] | 188 | 7.79 | – | –
23 | CC(C)(C)[C@H](NC(=O)c1nn(Cc2ccc(C#N)cc2)c2c(F)cccc12)C(=O)NCCNS(=O)(=O)C1CC1 [Example 115] | – | – | 8.72 | 1.09
24 | CC(C)(C)[C@H](NC(=O)c1nn(Cc2ccc(C#N)cc2)c2c(F)cccc12)C(=O)NCc1nnc(C(N)=O)o1 [Example 116] | – | – | 49.6 | 13.5
25 | CC(C)(C)[C@H](NC(=O)c1nn(Cc2ccc(C#N)cc2)c2c(F)cccc12)C(=O)NC(CO)CO [Example 117] | 168 | 9.54 | – | –

Row | SMILES | EC50 (human CB1 receptor [1]; [3]) [nM] | Ki (human CB1 receptor [2]; CB1 Ki) [nM] | EC50 (human CB1 receptor [1]; [4]) [nM] | Ki (human CB1 receptor [2]; read-out: CB1 Ki) [nM]
26 | CC(C)(C)C(NC(=O)c1nn(Cc2ccc(F)cc2)c2ccccc12)c1nnc(NC(N)=O)o1 (centres unmarked) [Example 118] | – | – | 23.8 | 0.7
27 | CC(C)(C)C(NC(=O)c1nn(Cc2ccc(F)cc2)c2ccccc12)c1nnc(CC(N)=O)o1 (centres unmarked) [Example 120] | – | – | 40 | 3.05
28 | CC(C)(C)C(NC(=O)c1nn(Cc2ccc(F)cc2)c2ccccc12)c1nnc(C(N)=O)o1 (centres unmarked) [Example 122] | – | – | 13.1 | 0.73
29 | Cc1nnc(CNC(=O)[C@@H](NC(=O)c2nn(Cc3ccc(F)cc3)c3ccccc23)C(C)(C)C)o1 [Example 126] | 2.55 | 0.97 | – | –
30 | Cc1nnc(CNC(=O)[C@@H](NC(=O)c2nn(Cc3ccc(C#N)cc3)c3ccccc23)C(C)(C)C)o1 [Example 127] | 136 | 32.8 | – | –
31 | CCOC(=O)c1nnc(CNC(=O)[C@@H](NC(=O)c2nn(Cc3ccc(F)cc3)c3ccccc23)C(C)(C)C)o1 [Example 128] | – | – | 3.58 | 0.97
32 | CCOC(=O)c1nnc(CNC(=O)[C@@H](NC(=O)c2nn(Cc3ccc(C#N)cc3)c3ccccc23)C(C)(C)C)o1 [Example 129] | – | – | 106 | 12.6
33 | CC(C)(C)C(NC(=O)c1nn(Cc2ccc(C#N)cc2)c2ccccc12)C(=O)NCc1nnc(C(N)=O)o1 (centres unmarked) [Example 130] | – | – | 72.7 | 14.7
34 | Cc1nc(CNC(=O)C(NC(=O)c2nn(Cc3ccc(F)cc3)c3ccccc23)C(C)(C)C)no1 (centres unmarked) [Example 131] | 13.2 | 0.6 | – | –
35 | CC(C)(C)C(NC(=O)c1nn(Cc2ccc(F)cc2)c2ccccc12)C(=O)N1CCC(O)CC1 (centres unmarked) [Example 133] | 6.35 | 0.55 | – | –
36 | CC(C)(C)C(NC(=O)c1nn(Cc2ccc(C#N)cc2)c2ccccc12)C(=O)N1CCC(O)CC1 (centres unmarked) [Example 134] | 326 | 32.7 | – | –
37 | CCOC(=O)c1nc(CNC(=O)C(NC(=O)c2nn(Cc3ccc(F)cc3)c3ccccc23)C(C)(C)C)no1 (centres unmarked) [Example 135] | – | – | 14.3 | 3.47
38 | CCOC(=O)c1nc(CNC(=O)C(NC(=O)c2nn(Cc3ccc(C#N)cc3)c3ccccc23)C(C)(C)C)no1 (centres unmarked) [Example 136] | – | – | 115 | 10.7
39 | CC(C)(C)C(NC(=O)c1nn(Cc2ccc(F)cc2)c2ccccc12)C(=O)NCc1noc(C(N)=O)n1 (centres unmarked) [Example 137] | – | – | 1.69 | 0.69
40 | Cc1noc(CNC(=O)C(NC(=O)c2nn(Cc3ccc(F)cc3)c3ccccc23)C(C)(C)C)n1 (centres unmarked) [Example 139] | 6.36 | 0.82 | – | –
41 | Cc1noc(CNC(=O)C(NC(=O)c2nn(Cc3ccc(C#N)cc3)c3ccccc23)C(C)(C)C)n1 (centres unmarked) [Example 140] | 645 | 39.3 | – | –
42 | CC(C)(C)C(NC(=O)c1nn(Cc2ccc(F)cc2)c2ccccc12)C(=O)NCCN1CCOCC1 (centres unmarked) [Example 141] | – | – | 41.1 | 9.42
43 | CC(C)(C)C(NC(=O)c1nn(Cc2ccc(F)cc2)c2ccccc12)C(=O)NCCc1nnc(C2CC2)o1 (centres unmarked) [Example 148] | – | – | 32.2 | 1.8
44 | CC(C)(C)C(NC(=O)c1nn(Cc2ccc(F)cc2)c2ccccc12)C(=O)N1CCC(O)C1 (centres unmarked) [Example 151] | 6.3 | 1.63 | – | –
45 | CC(C)(C)C(NC(=O)c1nn(Cc2ccc(F)cc2)c2ccccc12)C(=O)NC1(CO)CC1 (centres unmarked) [Example 160] | 32.3 | 1.45 | – | –
46 | CC(C)(C)C(NC(=O)c1nn(Cc2ccc(C#N)cc2)c2ccc(F)cc12)C(N)=O (centres unmarked) [Example 163] | 180 | 4.45 | – | –
47 | CC(C)(C)C(NC(=O)c1nn(Cc2ccc(C#N)cc2)c2ccc(F)cc12)C(=O)NCCO (centres unmarked) [Example 166] | 132 | 5.14 | – | –
48 | CC(C)(C)C(NC(=O)c1nn(Cc2ccc(F)cc2)c2ccc(F)cc12)C(N)=O (centres unmarked) [Example 170] | 0.7 | 0.27 | – | –
49 | CC(C)(C)C(NC(=O)c1nn(Cc2ccc(F)cc2)c2ccc(F)cc12)C(=O)NC1CC1 (centres unmarked) [Example 171] | 0.44 | 0.42 | – | –
